# EP4342530A1, “SORTILIN MODULATORS” (Insusense ApS, priority 2022, dated 2024)
# Biological target: T1, h-Sortilin (Homo sapiens, UniProt Q99523)
# T1 sequence (Q99523 78-831): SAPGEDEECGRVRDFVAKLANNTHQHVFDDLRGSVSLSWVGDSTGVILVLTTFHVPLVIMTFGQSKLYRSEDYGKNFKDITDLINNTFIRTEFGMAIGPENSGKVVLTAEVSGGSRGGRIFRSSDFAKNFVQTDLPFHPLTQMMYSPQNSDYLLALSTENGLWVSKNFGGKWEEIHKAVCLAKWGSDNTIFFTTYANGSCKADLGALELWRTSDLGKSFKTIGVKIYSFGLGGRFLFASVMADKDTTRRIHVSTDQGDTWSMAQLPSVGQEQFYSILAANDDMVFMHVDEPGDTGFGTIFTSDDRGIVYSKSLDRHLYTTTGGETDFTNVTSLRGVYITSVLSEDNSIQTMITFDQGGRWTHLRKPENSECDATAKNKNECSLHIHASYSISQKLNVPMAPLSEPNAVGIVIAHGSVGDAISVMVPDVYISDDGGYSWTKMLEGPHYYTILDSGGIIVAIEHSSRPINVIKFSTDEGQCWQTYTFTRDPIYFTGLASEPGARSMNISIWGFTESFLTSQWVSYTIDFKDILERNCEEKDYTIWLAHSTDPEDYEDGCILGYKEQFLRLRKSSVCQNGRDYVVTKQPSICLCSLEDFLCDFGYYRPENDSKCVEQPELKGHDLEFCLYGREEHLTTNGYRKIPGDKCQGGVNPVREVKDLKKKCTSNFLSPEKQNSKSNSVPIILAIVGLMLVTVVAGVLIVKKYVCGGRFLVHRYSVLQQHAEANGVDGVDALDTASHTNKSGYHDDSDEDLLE
# Test: Neurotensin scintillation proximity assay (displacement of [3H]-neurotensin binding)
# Details: 150 nM 6his-Sortilin, 5 nM [3H]-Neurotensin; average of at least 2 determinations; read-out: IC50 [3H]Neurotensin SPA
# Procedure, shortened: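 Compounds pre-incubated 30 min at room temperature with 150 nM 6His-sortilin in HEPES pH 7.4 buffer with NaCl, CaCl2, BSA and Tween-20, then 5 nM [3H]-neurotensin and Ni chelate SPA beads added; read after 6 h. IC50 from 8-point variable-slope fits, mean of at least 2 determinations.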
row,Structure (SMILES),IC50 [nM]
1,"CC(C)(C)CC[C@H](NCc1ccc2c(c1)COCC2)C(=O)O [Example 3, (S)-2-((isochroman-7-ylmethyl)amino)-5,5-dimethylhexanoic acid]",230
2,C[C@@H](N[C@@H](CCC(C)(C)C)C(=O)O)c1ccc2c(c1)OCCC2 [Example 9],210
3,C[C@H](N[C@@H](CCC(C)(C)C)C(=O)O)c1ccc2c(c1)CCCO2 [Example 50],230
4,C[C@@H](N[C@@H](CCC(C)(C)C)C(=O)O)c1ccc2c(c1)CCCO2 [Example 52],260
